Data reported in article PMC10790670 (Environmental science & technology, 2023).
“And” between values parts separate entries of the source, which are not always exact repeats. Equal entries are not always repeated. Where two headings read alike, the source gives them in different places. Marks after values point to notes of the source that are not given here.

Key:
[1] = predicted values from EPA Chemistry Dashboard; cited from earlier work
[2] = cited from earlier work; for published half-lives: biological half-lives quoted in abstract
[3] = Serum PFAS measurement by LC-HRMS, GenX Exposure Study participants; conditions: human, in vivo
[4] = experimental values from EPA Chemistry Dashboard; cited from earlier work
[5] = both, human, in vivo
[6] = weighted average, ref Zhang et al. 16
[7] = literature serum half-life, ref Li et al. 19
[8] = literature serum half-life, ref Li et al. 12

## O=C(O)C(F)(OC(F)(F)C(F)(F)C(F)(F)F)C(F)(F)F (stereo not shown) [GenX, hexafluoropropylene oxide dimer acid]
[1]
  logKow: 5.13^a
[2]; in workers, ECHA estimate
  half-life: 81 h
[2]; values from ECHA report
  half-life: 3.375^f days and 3.38^e days

## O=S(=O)(O)C(F)(F)C(F)(F)OC(F)C(F)(F)F (stereo not shown) [NVHOS, 1,1,2,2-tetrafluoro-2-(1,2,2,2-tetrafluoroethoxy)ethanesulfonic acid]
[3]
  concentration at 5 months: 1.14 ng/mL
[1]
  logKow: 2.58^a

## O=S(=O)(O)C(F)(F)C(F)(F)C(F)(F)C(F)(F)F [PFBS, perfluorobutanesulfonic acid]
[4]
  logKow: 2.76^b
[2]; ref Olsen et al. 54
  half-life: 26^h days

## O=C(O)C(F)(F)C(F)(F)C(F)(F)C(F)(F)C(F)(F)C(F)(F)C(F)(F)C(F)(F)C(F)(F)F [PFDA]
[4]
  logKow: 4.15^b
[2]; [6]
  half-life: 3743^i days

## O=C(O)C(F)(F)C(F)(F)C(F)(F)C(F)(F)C(F)(F)C(F)(F)F [PFHpA, perfluoroheptanoic acid]
[4]
  logKow: 2.05^b
[2]
  published half-lives: 30 to 60 days
[2]; [6]
  half-life: 464^i days

## O=S(=O)(O)C(F)(F)C(F)(F)C(F)(F)C(F)(F)C(F)(F)C(F)(F)C(F)(F)F [PFHpS]
[1]
  logKow: 4.85^a
[2]; [7]
  half-life: 533^e days

## O=C(O)C(F)(F)C(F)(F)C(F)(F)C(F)(F)C(F)(F)F [PFHxA, perfluorohexanoic acid]
[1]
  logKow: 2.8^a
[2]
  published half-lives: 30 to 60 days
[2]; ref Russel et al. 52
  half-life: 32^g days

## O=S(=O)(O)C(F)(F)C(F)(F)C(F)(F)C(F)(F)C(F)(F)C(F)(F)F [PFHxS, perfluorohexanesulfonic acid]
[1]
  logKow: 3.48^a
[2]; [7]
  half-life: 1661^e days

## O=C(O)C(F)(F)C(F)(F)C(F)(F)C(F)(F)C(F)(F)C(F)(F)C(F)(F)C(F)(F)F [PFNA, perfluorononanoic acid]
[4]
  logKow: 3.54^b
[2]; [6]
  half-life: 1417^i days

## O=C(O)C(F)(F)OC(F)(F)OC(F)(F)OC(F)(F)F [PFO3OA, perfluoro-3,5,7-trioxaoctanoic acid]
[3]
  concentration at 5 months: 1.02 ng/mL
[1]
  logKow: 6.07^a

## O=C(O)C(F)(F)OC(F)(F)OC(F)(F)OC(F)(F)OC(F)(F)F [PFO4DA, perfluoro-3,5,7,9-tetraoxadecanoic acid]
[3]
  concentration at 5 months: 5.6 ng/mL
  concentration at 11 months: 1.16 ng/mL
[1]
  logKow: 8.53^a
[5]
  effect of age on concentration: 0.0129 ng/mL/year
  effect of gender concentration in males: 0.376 ng/mL

## O=C(O)C(F)(F)OC(F)(F)OC(F)(F)OC(F)(F)OC(F)(F)OC(F)(F)F [PFO5DoA, perfluoro-3,5,7,9,11-pentaoxadodecanoic acid]
[3]
  concentration at 5 months: 12.4 ng/mL
  concentration at 11 months: 8.91 ng/mL
[5]
  effect of age on concentration: 0.0160 ^* ng/mL/year
  effect of gender concentration in males: 0.298 ng/mL

## O=C(O)C(F)(F)C(F)(F)C(F)(F)C(F)(F)C(F)(F)C(F)(F)C(F)(F)F [PFOA, perfluorooctanoic acid]
[4]
  logKow: 3.1^b
[2]
  published half-lives: 800 to 1200 days
[2]; [8]
  half-life: 902^c days
[2]; [7]
  half-life: 902^e days

## O=S(=O)(O)C(F)(F)C(F)(F)C(F)(F)C(F)(F)C(F)(F)C(F)(F)C(F)(F)C(F)(F)F [PFOS, perfluorooctanesulfonic acid]
[4]
  logKow: 5.61^b
[2]
  published half-lives: 800 to 1200 days
[2]; [8]
  half-life: 1241^d days

## O=S(=O)(O)C(F)(F)C(F)(F)C(F)(F)C(F)(F)C(F)(F)F [PFPeS]
[1]
  logKow: 3.38^a
[2]; [7]
  half-life: 343^e days

## O=C(O)C(F)(F)C(F)(F)C(F)(F)C(F)(F)C(F)(F)C(F)(F)C(F)(F)C(F)(F)C(F)(F)C(F)(F)F [PFUnA]
[4]
  logKow: 4.00^b
[2]; [6]
  half-life: 3743^i days
